{
  "source": "patent US20080207632A1",
  "about": "“PROTEIN KINASE INHIBITORS” (SUPERGEN, INC., priority 2006, published 2008)",
  "key": {"[1]": {"test_system": "MDA-MB-231 breast carcinoma cells", "assay": "cell proliferation assay (Cell-Titer-Glo), MDA-MB-231", "type": "cell-based", "conditions": "Homo sapiens", "procedure": "Cell culture-based assays can be used to evaluate the ability of compounds of the invention to inhibit one or more cellular activities, such as cancer cell growth and/or survival. Numerous cancer cell lines can be obtained from the American Type Culture Collection (ATCC) and other sources. Briefly, cells are seeded into 96-well, tissue-culture treated, opaque white plates (Thermo Electron, Vantaa, Finland), at between 5000 and 10000 cells per well, depending on the speed of cell proliferation, in 100 μl of appropriate growth medium (determined by the ATCC). Cells are then exposed to the appropriate concentration of drug or an equal amount of DMSO (drug diluent) and allowed to grow in its presence for 96 hours. Following this, 100 μl of Cell-Titer-Glo reagent (Promega, Inc., Madison, Wis.) is added to each well. Plates are then shaken for 2 minutes at room temperature to allow for cell lysis and incubated for 10 minutes to stabilize the luminescent signal. Similar to the Kinase-Glo assay reagent from Promega, this reagent contains both luciferase enzyme and its substrate luciferin. Luciferase, activated by ATP in the cell lysate, catalyzes the conversion of luciferin to oxyluciferin, a reaction which produces light. The amount of light produced is proportionate to the amount of ATP in the cell lysate, which is itself proportional to cell number and gives an index of cellular proliferation.\nCompound 1-1 and Compound 2-11 were tested in a cell proliferation assay to determine potency in a cell-based assay format. Briefly, MDA-MB-231 breast carcinoma cells were inoculated onto 96-well plates and incubated in the presence of compounds for 96 hours. Following incubation, cells were lysed and ATP content used as a surrogate for cell number, using the Cell-Titer-Glo Luminescent Cell Viability Assay Kit (Promega Corp.). IC50 values, representing the concentration required to reduce cell number to 50% of untreated controls, were determined to be 20 uM for Compound 1-1 and 10 uM for Compound 2-11."}, "[2]": {"test_system": "HT-29 human colon cancer cells", "assay": "HT-29 xenograft study in mice (Example 19)", "type": "in vivo", "conditions": "25 mg/kg intraperitoneally, q.d.x 5 for two weeks", "procedure": "In order to evaluate the effectiveness of compound 1-1 against tumor cells in a living system, a xenograft study was performed in mice. 1×10^7 HT-29 human colon cancer cells were injected subcutaneously into 16 Nu/Nu athymic nude mice (Charles River Laboratories, Wilmington, Mass.). Tumor volume was measured according to the formula ((Width)^2*Length)/2. Tumors were allowed to grow to approximately 100 mm^3 in volume (Day 0), at which point mice were randomized to two groups: Eight mice were treated with 25 mg/kg compound 1-1, while the other eight were given an equal volume of drug vehicle. For this study, the drug vehicle used was 60% propylene glycol, 30% polyethylene glycol 300, 10% ethanol with 150 mg/mL 2-hydroxypropyl-beta-cyclodextrin. Each mouse received 0.1 mL of drug or vehicle intraperitoneally on a q.d.x 5 schedule for two weeks, with two days rest between cycles."}, "[3]": {"test_system": "HepG2 (hepatocellular carcinoma)", "assay": "in vitro cytotoxicity assay (Cell-Titer-Glo), HepG2", "type": "cell-based", "conditions": "Homo sapiens, Table 10, 96 hours, read-out: IC50 HepG2 (inhibit cell growth to 50% of untreated)"}, "[4]": {"test_system": "A549 non-small cell lung carcinoma cells", "assay": "cell cycle distribution by DNA content flow cytometry (Guava)", "type": "cell-based", "conditions": "synchronized A549 cells, 24 hours post-release", "procedure": "It is expected that a specific Aurora-2 kinase inhibitor would cause only brief cell cycle arrest at G2/M, which should be immediately followed by apoptosis. This is in contrast to Aurora-1 kinase inhibitors, which tend to cause a prolonged cell cycle arrest. compound 2-3 was examined for its ability to cause cell cycle arrest and apoptosis. Briefly, A549 non-small cell lung carcinoma cells were plated at 50000 cells/mL in a 24-well plate. Cells were synchronized with 4 μg/mL Aphidicolin for 16 hours, followed by a 24 hour synchronization with 1 μg/mL Hoechst 33342, to arrest the cells at the G2/M boundary. Cells were then released into regular medium with or without SGI-498 and allowed to grow for an additional 24 hours. This synchronization was necessary for visualization of the brief G2/M arrest caused by compound 2-3. Following this incubation, cells were stained for DNA content analysis using the Guava Cell Cycle Assay Kit (Guava Technologies, Hayward Calif.), according to manufacturer instructions. Cells were then analyzed with the Guava EasyCyte benchtop flow cytometer using the Guava Cell Cycle analysis protocol. Cells were gated according to DNA content into G0/G1, S, G2/M or apoptotic (sub-G1) categories."}, "[5]": {"test_system": "Granta-4 lymphoma cell line", "assay": "lymphoma cell number reduction, Granta-4", "type": "cell-based", "conditions": "48 hours; read-out: IC50 Values Granta-4, single agent", "procedure": "(§1) New IC50 values were calculated for the second agent in an effort to determine whether or not pretreatment with one compound would increase sensitivity to the other. As set forth in the table below, compound 2-3 pretreatment led to an increased sensitivity to Taxol®, however Taxol® pretreatment appeared to be […] to compound 2-3 in this assay."}, "[6]": {"test_system": "Granta-22 lymphoma cell line", "assay": "lymphoma cell number reduction, Granta-22", "type": "cell-based", "conditions": "48 hours; read-out: IC50 Values Granta-22, single agent", "procedure": "as §1"}, "Panc-1 cells": {"test_system": "Panc-1 cells", "assay": "hollow fiber xenograft model (MTT), Panc-1", "type": "in vivo, athymic nude mice", "conditions": "Panc-1 fibers implanted SC", "procedure": "Compound 2-3 was tested against three tumor types in athymic nude mice using the hollow fiber xenograft model. After incubation and growth overnight, drug-permeable fibers containing tumor cells were surgically implanted either intraperitoneally (IP) or subcutaneously (SC) and allowed to grow for 24-hours. After treatment with compound 2-3, fibers were removed and tumor cell growth was measured using the MTT assay. A549, Panc-1 or HT-29 cells were injected into separate fibers and each mouse received a fiber containing each cell line both SC and IP totaling six fibers per mouse."}, "DU145 carcinoma": {"test_system": "DU145 carcinoma", "assay": "DU145 prostate cancer xenograft", "type": "in vivo", "procedure": "In this study, DU145 carcinoma model was used to evaluate the anti-tumor efficacy of compound 2-3. The murine xenograft model was established by inoculating 2×10^6 cells into each Balb/c nude mouse via s.c. injection. When the average tumor size reached ˜100 mm^3, the mice were randomly divided into different experimental groups based on tumor size. Subcutaneous administration of compound 2-3 was conducted via an Alzet osmotic pump. On day 30 a second cycle of dosing was initiated."}},
  "note": "Read-outs that look alike come from different tables or passages of the source.",
  "data": [
    {"smiles": "CC(=O)NS(=O)(=O)c1ccc(NC(=S)N2CCN(c3ncnc4[nH]c5cc(C(F)(F)F)c(Cl)cc5c34)CC2)cc1", "note": "[Compound 1-1, 4-(6-Chloro-7-trifluoromethyl-9H-pyrimido[4,5-b]indol-4-yl)-piperazine-1-carbothioic acid (4-acetylsulfamoyl-phenyl)-amide]", "values": [
      {"measurement": "IC50", "setting": "[1]; Example 65, 96 hours, read-out: IC50 (reduce cell number to 50% of untreated controls)", "result": 20, "unit": "µM"},
      {"measurement": "IC50", "setting": "[1]; Table 10, 96 hours, read-out: IC50 MDA-MB-231 (inhibit cell growth to 50% of untreated)", "result": 20.2, "unit": "µM"},
      {"measurement": "toxicity through the duration of the study", "setting": "[2]", "result": "No noticeable toxicity"},
      {"measurement": "tumor growth inhibition in vivo", "setting": "[2]", "result": "effective for inhibiting tumor growth in vivo"},
      {"measurement": "IC50", "setting": "[3]", "result": 7.83, "unit": "µM"}
    ]},
    {"smiles": "COc1cc2[nH]c3ncnc(N4CCN(C(=S)Nc5ccc(S(=O)(=O)Nc6ccc(F)cc6)cc5)CC4)c3c2cc1OC", "note": "[Compound 2-3, 4-(6,7-dimethoxy-9H-pyrimido[4,5-b]indol-4-yl)-N-(4-(N-(4-fluorophenyl)sulfamoyl)phenyl)piperazine-1-carbothioamide]", "values": [
      {"measurement": "cell cycle arrest and apoptosis", "setting": "[4]", "result": "Brief Cell Cycle Arrest in G2/M. Followed by Apoptosis"},
      {"measurement": "IC50", "setting": "[5]", "result": 2.04, "unit": "µM"},
      {"measurement": "IC50", "setting": "[6]", "result": 6.67, "unit": "µM"},
      {"measurement": "tumor cell growth in fibers", "setting": "Panc-1 cells; 20 mg/kg intravenous", "result": 58.7, "unit": "% growth"},
      {"measurement": "tumor cell growth in fibers", "setting": "Panc-1 cells; 40 mg/kg intravenous", "result": 60.9, "unit": "% growth"},
      {"measurement": "tumor growth", "setting": "DU145 carcinoma; Alzet osmotic pump subcutaneous or intravenous, second cycle on day 30", "result": "led to a reduction in tumor growth"},
      {"measurement": "tolerability of repeat dose (weight loss)", "setting": "DU145 carcinoma; repeat dose in mice", "result": "well tolerated"},
      {"measurement": "efficacy by route of administration", "setting": "DU145 carcinoma; subcutaneous versus intravenous", "result": "more effective when administered subcutaneously than intravenously"}
    ]}
  ]
}
